The text below walks through data of US9512116B2, “Compounds that modulate intracellular calcium” (CALCIMEDICA, INC., priority 2012, dated 2016).

For one experiment, the target named is T1, Orai1/STIM1 (Homo sapiens, UniProt Q96D31).
T1 construct: expressed in transfected cells; host or cells: HEK-293
Kind of experiment: Fluorescence-based assay of store-operated calcium entry in Orai1/STIM1 stable cells. The settings on record: HEK-293 cells stably expressing human STIM1 and Orai1, Peak-Basal signal, read-out: Orail/STIM1 (IC50, μmol). The class given is cell-based. From the text:
Fluorescence-based assays are used for screening the compounds described herein, such as compounds of Formulas (I), (II), (III), (IV) or (V) which modulate intracellular calcium.
A. Fluorescence-Based Assay of Store-Operated Calcium Entry in Orai1/STIM1 Stable Cells.
Cells stably expressing recombinant human STIM1 and Orai1 are generated by transfecting a human Orai1 expression plasmid (pcDNA3.1-Orai1-cmyc) into HEK-293 cells stably overexpressing human STIM1 (Roos et al. 2005 JCB 169(3): 435-445). Colonies of cells stably expressing both STIM1 and Orai1 proteins are selected and then subcloned by limiting dilution. Cells were cultured at 37° C./6% CO2 in complete medium with 10% FBS and appropriate selection markers.
The day prior to performing the assay Orai1/STIM1 stable cells are plated in 50 μL of complete medium at 90-95% confluence in a 384 well plate. Cells are grown at 37° C./6% CO2 overnight. On the day of the assay, 1.5 μM fluo-4-AM (Invitrogen) in complete medium is added to the cells, which are then incubated for 1 hour at RT. Cells are washed once in Ca^2+-free HBSS (Hank's buffered saline solution) and 35 μl of Ca^2+-free HBSS is added to each well. Test compounds are added to wells in a 10 μL Ca^2+-free HBSS solution, prepared at 4.5× the desired final concentration, and incubated for 30 minutes at RT. The initial baseline fluorescence signal is then measured with a FLIPR^384 (Molecular Devices) plate reader. Calcium entry is initiated by adding 5 μl of 10×CaCl2 (10 mM) in HBSS, and changes in cellular fluorescence are measured with the FLIPR^384 plate reader. In each well, the magnitude of the fluorescence signal as a result of calcium entry into the cell is determined by calculating the difference between the peak fluorescence signal measured after calcium addition and the initial baseline fluorescence signal (designated Peak-Basal). IC50 values are typically calculated as the concentration that inhibited 50% of the Peak-Basal signal.

A further experiment deals with RBL-2H3 cells. In words: Fluorescence-based assay of store-operated calcium entry in RBL-2H3 cells. The class given is cell-based. The following applies: Rattus norvegicus, thapsigargin, Upslope, read-out: RBL-2H3 (IC50, μmol). As for the experimental part: B. Fluorescence-Based Assay of Store-Operated Calcium Entry in RBL-2H3 Cells.
RBL-2H3 cells are obtained from ATCC and maintained in complete medium with 10% FBS at 37° C./6% CO2.
The day prior to performing the assay, RBL-2H3 cells are plated in 50 μl of complete medium in a 384 well plate. Cells are grown at 37° C./6% CO2 overnight and grow to 50-60% confluence by the next day. On the assay day, 1.5 μM Fluo-4-AM dye (Invitrogen) in complete medium is added and incubated for 1 hour at RT. Cells are washed twice in Ca^2+-free HBSS buffer and 35 μL Ca^2+-free HBSS buffer is added to each well. 10 μL of a test compound prepared in a Ca^2+-free HBSS solution at 4.5× of the desired concentration is added to a well and incubated for 5 minutes at RT. 10 μL of thapsigargin prepared in a Ca^2+-free HBSS solution at 5.5× of the desired concentration (5.5 uM) is added to each well and incubated for an additional 25 minutes. The initial baseline fluorescence signal is measured with a FLIPR^384 (Molecular Devices) plate reader. 5 μL of 12× calcium in HBSS (12 mM) is added and changes in cellular fluorescence are measured with the FLIPR^384 plate reader. In each well, the change in the fluorescent signal as a function of time due to calcium entry into the cell is determined by calculating the difference between the fluorescent signal measured 7 seconds after calcium addition and the initial baseline fluorescence signal at time zero (t=0). This parameter is designated Upslope. The IC50 value is calculated as the concentration at which 50% of the Upslope is inhibited.

Like-named read-outs stand apart in the source and are kept apart here.

T1 sequence (Q96D31 whole entry): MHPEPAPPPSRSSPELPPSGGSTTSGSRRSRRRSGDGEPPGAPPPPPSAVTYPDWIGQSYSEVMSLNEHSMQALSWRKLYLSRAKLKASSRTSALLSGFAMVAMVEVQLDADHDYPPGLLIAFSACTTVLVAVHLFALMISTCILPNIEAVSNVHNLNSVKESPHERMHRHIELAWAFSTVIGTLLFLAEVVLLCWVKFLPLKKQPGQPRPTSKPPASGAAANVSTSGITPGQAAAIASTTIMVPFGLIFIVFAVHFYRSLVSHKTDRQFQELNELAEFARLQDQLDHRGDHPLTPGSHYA

As for `Cn1nc(-c2nccs2)cc1-c1ccc(NC(=O)c2c(F)cccc2F)s1` [Compound 6, (2,6-difluorophenyl)-N-[5-[1-methyl-3-(1,3-thiazol-2-yl)pyrazol-5-yl](2-thienyl)]carboxamide], the IC50 on Orai1/STIM1 (Table IV) was under 0.6 µM.

Consider `Cn1nc(-c2nccs2)cc1-c1ccc(NC(=O)c2ccc(F)cc2F)s1` [Compound 7, (2,4-difluorophenyl)-N-[5-[1-methyl-3-(1,3-thiazol-2-yl)pyrazol-5-yl](2-thienyl)]carboxamide], for which the IC50 on Orai1/STIM1 (Table IV) is under 0.6 µM.

On to `Cn1nc(-c2nccs2)cc1-c1ccc(NC(=O)c2c(F)cc(F)cc2F)s1` [Compound 10, (2,4,6-trifluorophenyl)-N-[5-[1-methyl-3-(1,3-thiazol-2-yl)pyrazol-5-yl](2-thienyl)]carboxamide], for which the IC50 on Orai1/STIM1 (Table IV) was under 0.6 µM.

On to `Cc1oc(C(F)(F)F)nc1-c1ccc(NC(=O)c2c(F)cccc2F)nc1` [Compound 14, 2,6-difluoro-N-(5-(5-methyl-2-(trifluoromethyl)oxazol-4-yl)pyridin-2-yl)benzamide], for which the IC50 on Orai1/STIM1 (Table III) is under 0.6 µM.

Regarding `CCn1nc(-c2nccs2)cc1-c1ccc(NC(=O)c2c(F)cccc2F)s1` [Compound 15], the IC50 on Orai1/STIM1 (Table IV) fell in the range of 0.6 to 1.2 µM.

With `Cc1ccccc1C(=O)Nc1ccc(-c2nc(C(F)(F)F)oc2C)cn1` [Compound 15], at Orai1/STIM1 (Table III), the IC50 is under 0.6 µM.

With `CCn1nc(-c2nccs2)cc1-c1ccc(NC(=O)c2c(F)cc(F)cc2F)s1` [Compound 16], the IC50 on Orai1/STIM1 (Table IV) lay within 0.6 to 1.2 µM.

Turning to `Cc1oc(C(F)(F)F)nc1-c1ccc(NC(=O)c2ccccc2F)nc1` [Compound 16], on Orai1/STIM1 (Table III), the IC50 is under 0.6 µM.

For the compound `Cc1oc(C(F)(F)F)nc1-c1ccc(NC(=O)c2c(F)cncc2F)nc1` [Compound 17, 3,5-difluoro-N-(5-(5-methyl-2-(trifluoromethyl)oxazol-4-yl)pyridin-2-yl)isonicotinamide], the IC50 at Orai1/STIM1 (Table III) is under 0.6 µM.

On to `Cc1oc(C(F)(F)F)nc1-c1ccc(NC(=O)c2cccc(F)c2C)nc1` [Compound 19, 3-fluoro-2-methyl-N-(5-(5-methyl-2-(trifluoromethyl)oxazol-4-yl)pyridin-2-yl)benzamide], for which the IC50 at Orai1/STIM1 (Table III) was under 0.6 µM.

Take `Cn1nc(-c2ccccc2F)cc1-c1ccc(NC(=O)c2c(F)cc(F)cc2F)s1` [Compound 20]: the IC50 on Orai1/STIM1 (Table IV) and with RBL-2H3 cells (Table IV) was under 0.6 µM throughout.

With `Cc1cccc(F)c1C(=O)Nc1ccc(-c2nc(C(F)(F)F)oc2C)cn1` [Compound 21], the IC50 at Orai1/STIM1 (Table III) and in the experiment with RBL-2H3 cells (Table III) was under 0.6 µM in each case.

Turning to `Cn1nc(-c2ccccc2F)cc1-c1ccc(NC(=O)c2c(F)ccc(F)c2F)s1` [Compound 21], the IC50 on Orai1/STIM1 (Table IV) and in the experiment with RBL-2H3 cells (Table IV) was 0.6 to 1.2 µM throughout.

As for `Cn1nc(-c2ccccc2F)cc1-c1ccc(NC(=O)c2c(F)cccc2F)s1` [Compound 22], the IC50 on Orai1/STIM1 (Table IV) and in the experiment on RBL-2H3 cells (Table IV) was under 0.6 µM throughout.

Consider `CCc1oc(C(F)(F)F)nc1-c1ccc(NC(=O)c2ccccc2F)nc1` [Compound 24, N-(5-(5-ethyl-2-(trifluoromethyl)oxazol-4-yl)pyridin-2-yl)-2-fluorobenzamide], for which the IC50 on Orai1/STIM1 (Table III) was under 0.6 µM.

On to `CCc1oc(C(F)(F)F)nc1-c1ccc(NC(=O)c2c(F)cccc2F)nc1` [Compound 25, N-(5-(5-ethyl-2-(trifluoromethyl)oxazol-4-yl)pyridin-2-yl)-2,6-difluorobenzamide], for which, on Orai1/STIM1 (Table III), the IC50 is under 0.6 µM.

`Cn1nc(-c2ccccn2)cc1-c1ccc(NC(=O)c2c(F)cc(F)cc2F)s1` [Compound 27, 2,4,6-trifluoro-N-(5-(1-methyl-3-(pyridin-2-yl)-1H-pyrazol-5-yl)thiophen-2-yl)benzamide]: the IC50 on Orai1/STIM1 (Table IV) was in the range of 0.6 to 1.2 µM.

Take `Cn1nc(-c2ccccn2)cc1-c1ccc(NC(=O)c2c(F)cccc2F)s1` [Compound 28, 2,6-difluoro-N-(5-(1-methyl-3-(pyridin-2-yl)-1H-pyrazol-5-yl)thiophen-2-yl)benzamide]: the IC50 on Orai1/STIM1 (Table IV) is under 0.6 µM.
